# Tests used:
# Format in all cases: cell-based
# STAT3 = target: T1, STAT3 (Homo sapiens, UniProt P40763); test: STAT3 reporter gene (luciferase) assay in LNCaP stable cell line stimulated with IL-6; conditions: LNCaP stable cell line (pSTAT3-TA-luc), IL-6 10 ng/mL, 24 hours
# T1 construct: plasmid pSTAT3-TA-luc), which contains a stably operating STAT3 promoter; endogenous in cells
# Procedure, shortened: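 LNCaP cells stably carrying pSTAT3-TA-luc, in RPMI1640 with 3% DCC-FBS, cultured 24 hours, then treated with compound at various concentrations plus IL-6 (final 10 ng/mL) for 24 hours at 37° C. Luciferase measured in lysates; parallel plate read for viability by CellTiter-Glo.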
# STAT1 = target: T2, STAT1 (Homo sapiens, UniProt P42224); test: STAT1 reporter gene (luciferase) assay in U2OS stable cell line stimulated with IFN-γ; conditions: U2OS stable cell line (pGL4-STAT1-TA-luc), IFN-γ 50 ng/mL, 8 hours; read-out: IC50 (μM) pSTAT1
# T2 construct: pGL4-STAT1-TA-luc), which contains a stably operating STAT1 promoter; endogenous in cells
# T2 sequence (P42224 1-750): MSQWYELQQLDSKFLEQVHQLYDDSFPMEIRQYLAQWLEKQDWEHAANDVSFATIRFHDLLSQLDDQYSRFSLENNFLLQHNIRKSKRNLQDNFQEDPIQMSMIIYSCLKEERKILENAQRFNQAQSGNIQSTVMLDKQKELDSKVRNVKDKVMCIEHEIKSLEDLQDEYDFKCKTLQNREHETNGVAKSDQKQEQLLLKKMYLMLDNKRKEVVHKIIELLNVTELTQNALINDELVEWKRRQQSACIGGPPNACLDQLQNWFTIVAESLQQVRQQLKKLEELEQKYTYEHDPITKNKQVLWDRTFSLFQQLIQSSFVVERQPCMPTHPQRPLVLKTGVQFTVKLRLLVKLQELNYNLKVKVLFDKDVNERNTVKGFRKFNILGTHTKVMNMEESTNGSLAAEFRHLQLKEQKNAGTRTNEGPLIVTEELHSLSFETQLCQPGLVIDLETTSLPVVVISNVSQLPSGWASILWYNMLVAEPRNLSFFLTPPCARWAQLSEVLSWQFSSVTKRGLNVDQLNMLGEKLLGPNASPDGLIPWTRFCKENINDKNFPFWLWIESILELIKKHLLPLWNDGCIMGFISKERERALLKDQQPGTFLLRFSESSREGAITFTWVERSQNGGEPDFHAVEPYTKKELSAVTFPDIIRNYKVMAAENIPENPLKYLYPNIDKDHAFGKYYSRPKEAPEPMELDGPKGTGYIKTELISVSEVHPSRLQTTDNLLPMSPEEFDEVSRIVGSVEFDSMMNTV
# Description: 1-2) Experiment on the Inhibition of STAT1 Activity
# A human osteosarcoma cell line (U2OS stable cell line; pGL4-STAT1-TA-luc), which contains a stably operating STAT1 promoter, was cultured in McCoy 5′A medium (Cat No. 16600, Life Technologies) containing 10% FBS (Cat No. SH30396, Thermo Scientific) and 1000 μg/mL G418 solution (Cat No. 04 727 894 001, Roche). The reporter gene assay using U2OS stable cell line was performed in McCoy 5′A medium containing 10% FBS without G-418 solution. U2OS stable cells were plated in two (2) white 96-well plates with 25,000 cells/50 μL in each well. […] The plates were observed under microscope and drug precipitation and particular findings were investigated and recorded.
# The luciferase assay and the cell viability assay were performed respectively with one of two plates. […] After shaking the plate for 30 minutes, luciferase activities of each well were measured in a PHERAstar™ microplate reader (BMG LABTECH) using a luciferase assay system (Cat No. E1501, Promega). For the cell viability assay, the 96-well plate was placed at room temperature for 30 minutes, added with 20 μL/well of CellTiter-Glo solution (Cat No. G7573, Promega), and shaken for 10 minutes in order to measure cytotoxicity caused by the compounds listed in Examples with a PHERAstar™ microplate reader (BMG LABTECH). […]
# NCI-N87 = test: Cell growth inhibition assay (CellTiter-Glo), stomach cancer cell line NCI-N87; conditions: NCI-N87 cells, 96 hours
# Procedure, shortened: (§1)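 Cells seeded at 5,000/well (NCI-N87) or 10,000/well (MDA-MB-468) and exposed to serially diluted compounds for 96 h at 37 °C, NCI-N87 under 5% CO2 and MDA-MB-468 in air. Viability read by CellTiter-Glo luminescence; cell-free wells served as negative control and 0.1% DMSO wells as positive control.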
# MDA-MB-468 = test: Cell growth inhibition assay (CellTiter-Glo), breast cancer cell line MDA-MB-468; conditions: MDA-MB-468 cells, 96 hours
# Procedure, shortened: as §1
# T1 sequence (P40763 whole entry): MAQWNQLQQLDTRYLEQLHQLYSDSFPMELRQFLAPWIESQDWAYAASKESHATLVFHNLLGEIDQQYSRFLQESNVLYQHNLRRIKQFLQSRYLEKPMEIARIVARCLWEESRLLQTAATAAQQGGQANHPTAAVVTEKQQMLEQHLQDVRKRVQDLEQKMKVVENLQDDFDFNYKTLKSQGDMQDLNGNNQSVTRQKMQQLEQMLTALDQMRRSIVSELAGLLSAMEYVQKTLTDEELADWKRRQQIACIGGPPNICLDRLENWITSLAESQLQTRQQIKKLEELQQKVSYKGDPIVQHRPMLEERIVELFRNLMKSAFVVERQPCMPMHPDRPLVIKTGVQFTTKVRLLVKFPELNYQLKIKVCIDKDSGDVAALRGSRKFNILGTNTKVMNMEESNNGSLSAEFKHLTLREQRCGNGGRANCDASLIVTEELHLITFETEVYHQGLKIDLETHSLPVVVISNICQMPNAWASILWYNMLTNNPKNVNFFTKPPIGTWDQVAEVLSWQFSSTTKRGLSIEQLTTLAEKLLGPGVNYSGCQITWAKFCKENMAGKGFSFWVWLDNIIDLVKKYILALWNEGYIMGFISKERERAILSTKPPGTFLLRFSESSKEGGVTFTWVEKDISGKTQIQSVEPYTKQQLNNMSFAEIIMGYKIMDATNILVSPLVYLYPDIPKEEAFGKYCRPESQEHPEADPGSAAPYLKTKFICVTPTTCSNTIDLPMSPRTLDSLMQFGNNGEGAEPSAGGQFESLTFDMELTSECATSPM
IC50 (STAT3) [µM],IC50 (STAT1) [µM],IC50 (NCI-N87) [µM],IC50 (MDA-MB-468) [µM],Substance
0.76,> 50,0.72,,"tert-butyl 7-((2-chloro-6-(4-chlorophenoxy)pyridin-4-yl)carbamoyl)-1-(methylsulfonyl)-2,3-dihydrothieno[2,3-g]quinoxaline-4(1H)-carboxylate [Example 5]"
0.0062,> 50,0.0095,0.0047,"N-(2-chloro-6-(5-chloro-2-methylphenoxy)pyridin-4-yl)-4-(methylsulfonyl)-3,4-dihydro-2H-thieno[3,2-g]chromene-7-carboxamide [Example 37]"

# — patent publication US10633394B2, “Heterocyclic derivatives and use thereof” (C & C RESEARCH LABORATORIES, priority 2014, dated 2020)
